Key:
Conditions in all cases: 1 mM ATP; inhibitor
[1] = molecular target: ALK (Homo sapiens, UniProt Q9UM73)
Procedure: (§1) Kinase selectivity panel Kinome profiling was conducted by AssayQuant Technologies (Marlboro, MA) using Sox chromophore technology and Sox-based peptide substrates developed for human kinases in a 384-well format. Compounds were tested at 1 µM in the presence of 1 mM ATP.

[2] = molecular target: AXL (Homo sapiens, UniProt P30530)
Procedure: as §1

[3] = molecular target: BUB1 (Homo sapiens, UniProt O43683)
Chain of BUB1 (O43683 whole entry): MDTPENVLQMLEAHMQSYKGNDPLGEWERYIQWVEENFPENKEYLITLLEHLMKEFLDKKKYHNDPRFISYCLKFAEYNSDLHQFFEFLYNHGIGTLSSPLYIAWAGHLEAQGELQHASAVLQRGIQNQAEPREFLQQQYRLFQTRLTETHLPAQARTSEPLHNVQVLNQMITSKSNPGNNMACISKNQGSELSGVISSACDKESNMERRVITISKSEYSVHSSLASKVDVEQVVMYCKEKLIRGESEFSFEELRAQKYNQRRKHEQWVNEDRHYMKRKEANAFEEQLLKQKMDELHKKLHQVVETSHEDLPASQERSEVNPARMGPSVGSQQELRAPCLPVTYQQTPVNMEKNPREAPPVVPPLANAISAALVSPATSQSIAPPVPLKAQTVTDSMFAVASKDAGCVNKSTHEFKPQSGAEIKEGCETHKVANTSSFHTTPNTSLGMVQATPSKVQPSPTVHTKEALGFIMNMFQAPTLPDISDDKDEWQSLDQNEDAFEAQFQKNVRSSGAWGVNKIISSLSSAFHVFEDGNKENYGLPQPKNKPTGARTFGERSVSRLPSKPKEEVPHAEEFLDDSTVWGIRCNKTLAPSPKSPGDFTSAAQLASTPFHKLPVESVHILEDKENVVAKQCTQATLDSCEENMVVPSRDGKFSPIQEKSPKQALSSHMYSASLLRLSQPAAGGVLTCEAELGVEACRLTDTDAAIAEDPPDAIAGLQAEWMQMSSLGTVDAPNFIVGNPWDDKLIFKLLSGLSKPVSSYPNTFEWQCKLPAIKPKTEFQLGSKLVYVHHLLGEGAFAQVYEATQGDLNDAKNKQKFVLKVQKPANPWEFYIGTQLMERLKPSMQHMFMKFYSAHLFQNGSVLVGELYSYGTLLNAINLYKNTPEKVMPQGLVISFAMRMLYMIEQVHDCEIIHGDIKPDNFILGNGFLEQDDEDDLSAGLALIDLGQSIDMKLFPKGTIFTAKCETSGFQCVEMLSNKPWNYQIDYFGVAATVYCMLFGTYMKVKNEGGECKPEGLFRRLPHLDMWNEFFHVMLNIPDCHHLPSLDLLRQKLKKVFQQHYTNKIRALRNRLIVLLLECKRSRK
Procedure: as §1

[4] = molecular target: T1, CAMK1A (Homo sapiens, UniProt Q14012)
T1 construct: gene CAMK1
Procedure: as §1

[5] = molecular target: CAMK2A (Homo sapiens, UniProt Q9UQM7)
Procedure: as §1

[6] = molecular target: CAMKK2 (Homo sapiens, UniProt Q96RR4)
Procedure: as §1

[7] = molecular target: CDK6/D1 (Homo sapiens, UniProt Q00534)
Procedure: as §1

[8] = molecular target: DDR2 (Homo sapiens, UniProt Q16832)
Procedure: as §1

[9] = molecular target: DYRK4 (Homo sapiens, UniProt Q9NR20)
Procedure: as §1

[10] = molecular target: FLT3 (Homo sapiens, UniProt P36888)
Procedure: as §1

[11] = molecular target: GRK5 (Homo sapiens, UniProt P34947)
Procedure: as §1

[12] = molecular target: HIPK4 (Homo sapiens, UniProt Q8NE63)
Procedure: as §1

[13] = molecular target: T2, LYNB (Homo sapiens, UniProt P07948)
T2 construct: gene LYN
Procedure: as §1

[14] = molecular target: MAP3K1 (Homo sapiens, UniProt Q13233)
Procedure: as §1

[15] = molecular target: MAP3K13 (Homo sapiens, UniProt O43283)
Procedure: as §1

[16] = molecular target: MAP3K9 (Homo sapiens, UniProt P80192)
Procedure: as §1

[17] = molecular target: MAP4K3/GLK (Homo sapiens, UniProt Q8IVH8)
Chain of MAP4K3/GLK (Q8IVH8 whole entry): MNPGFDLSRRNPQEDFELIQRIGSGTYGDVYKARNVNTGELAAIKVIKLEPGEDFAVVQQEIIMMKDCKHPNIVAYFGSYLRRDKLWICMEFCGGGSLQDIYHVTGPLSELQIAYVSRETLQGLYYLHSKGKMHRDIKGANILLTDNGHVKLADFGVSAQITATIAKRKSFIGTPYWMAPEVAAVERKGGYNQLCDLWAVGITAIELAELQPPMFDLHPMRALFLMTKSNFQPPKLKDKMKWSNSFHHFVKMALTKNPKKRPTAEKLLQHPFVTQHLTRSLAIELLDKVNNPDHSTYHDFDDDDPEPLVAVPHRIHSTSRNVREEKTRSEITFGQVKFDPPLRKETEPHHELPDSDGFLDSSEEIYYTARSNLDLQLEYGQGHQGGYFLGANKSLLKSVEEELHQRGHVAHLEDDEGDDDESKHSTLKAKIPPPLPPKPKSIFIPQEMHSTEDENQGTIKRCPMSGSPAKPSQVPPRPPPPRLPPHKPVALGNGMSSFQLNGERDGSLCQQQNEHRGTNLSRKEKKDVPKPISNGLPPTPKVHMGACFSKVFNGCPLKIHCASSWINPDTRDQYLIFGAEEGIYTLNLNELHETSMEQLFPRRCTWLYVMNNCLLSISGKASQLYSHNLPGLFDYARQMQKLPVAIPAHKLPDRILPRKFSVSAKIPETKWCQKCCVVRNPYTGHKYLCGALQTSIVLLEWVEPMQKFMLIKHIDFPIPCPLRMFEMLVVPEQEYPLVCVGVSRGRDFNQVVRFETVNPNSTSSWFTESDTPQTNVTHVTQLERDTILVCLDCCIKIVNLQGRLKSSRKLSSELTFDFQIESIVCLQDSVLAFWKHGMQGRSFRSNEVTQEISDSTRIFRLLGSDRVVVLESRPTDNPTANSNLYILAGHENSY
Procedure: as §1

[18] = molecular target: MAPKAPK5/MK5 (Homo sapiens, UniProt Q8IW41)
Procedure: as §1

[19] = molecular target: MYLK4 (Homo sapiens, UniProt Q86YV6)
Procedure: as §1

[20] = molecular target: T3, PDHK3 (Homo sapiens, UniProt Q15120)
T3 construct: gene PDK3
Procedure: as §1

[21] = molecular target: PRKACA (Homo sapiens, UniProt P17612)
Procedure: as §1

[22] = molecular target: PRKACB (Homo sapiens, UniProt P22694)
Procedure: as §1

[23] = molecular target: PRKACG (Homo sapiens, UniProt P22612)
Chain of PRKACG (P22612 whole entry): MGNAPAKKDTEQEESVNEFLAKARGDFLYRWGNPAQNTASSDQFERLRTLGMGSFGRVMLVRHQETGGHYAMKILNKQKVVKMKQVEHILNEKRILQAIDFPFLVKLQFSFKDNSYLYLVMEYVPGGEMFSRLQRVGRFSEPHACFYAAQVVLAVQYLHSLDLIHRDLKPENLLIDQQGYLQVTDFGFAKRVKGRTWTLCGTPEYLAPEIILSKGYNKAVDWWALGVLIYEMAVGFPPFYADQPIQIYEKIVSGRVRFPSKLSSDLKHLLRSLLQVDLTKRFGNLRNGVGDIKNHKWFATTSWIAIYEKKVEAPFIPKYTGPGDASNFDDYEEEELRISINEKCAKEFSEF
Procedure: as §1

[24] = molecular target: PRKCA/PKCA (Homo sapiens, UniProt P17252)
Procedure: as §1

[25] = molecular target: PRKD2 (Homo sapiens, UniProt Q9BZL6)
Chain of PRKD2 (Q9BZL6 whole entry): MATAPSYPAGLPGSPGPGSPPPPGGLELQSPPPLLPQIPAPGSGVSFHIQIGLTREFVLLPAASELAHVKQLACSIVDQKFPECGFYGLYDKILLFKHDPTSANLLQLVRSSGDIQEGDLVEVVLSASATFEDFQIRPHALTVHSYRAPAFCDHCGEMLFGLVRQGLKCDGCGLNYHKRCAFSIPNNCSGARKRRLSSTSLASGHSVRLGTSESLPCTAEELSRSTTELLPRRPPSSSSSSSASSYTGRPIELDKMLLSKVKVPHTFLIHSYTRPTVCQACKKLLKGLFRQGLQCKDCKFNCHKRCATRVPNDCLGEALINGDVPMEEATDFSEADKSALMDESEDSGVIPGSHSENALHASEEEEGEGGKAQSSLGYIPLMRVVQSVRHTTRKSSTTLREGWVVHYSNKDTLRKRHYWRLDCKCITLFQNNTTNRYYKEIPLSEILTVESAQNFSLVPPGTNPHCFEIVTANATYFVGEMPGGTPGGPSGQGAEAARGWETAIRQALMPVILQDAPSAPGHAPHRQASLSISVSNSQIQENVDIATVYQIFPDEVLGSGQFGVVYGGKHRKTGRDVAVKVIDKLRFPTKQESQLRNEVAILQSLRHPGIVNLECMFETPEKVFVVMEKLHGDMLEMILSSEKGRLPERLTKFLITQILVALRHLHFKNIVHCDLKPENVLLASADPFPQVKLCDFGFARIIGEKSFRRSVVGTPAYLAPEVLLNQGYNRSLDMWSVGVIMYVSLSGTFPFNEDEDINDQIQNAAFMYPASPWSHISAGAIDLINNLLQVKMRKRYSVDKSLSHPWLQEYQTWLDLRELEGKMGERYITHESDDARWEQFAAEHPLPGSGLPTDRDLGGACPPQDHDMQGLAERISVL
Procedure: as §1

[26] = molecular target: PRKD3 (Homo sapiens, UniProt O94806)
Procedure: as §1

[27] = molecular target: PRKG2 (Homo sapiens, UniProt Q13237)
Procedure: as §1

[28] = molecular target: PTK2 (Homo sapiens, UniProt Q05397)
Procedure: as §1

[29] = molecular target: PTK2B (Homo sapiens, UniProt Q14289)
Procedure: as §1

[30] = molecular target: RIPK2 (Homo sapiens, UniProt O43353)
Procedure: as §1

[31] = molecular target: RPS6KA5/MSK1 (Homo sapiens, UniProt O75582)
Procedure: as §1

[32] = molecular target: RPS6KB1/P70S6K (Homo sapiens, UniProt P23443)
Procedure: as §1

[33] = molecular target: SGK1 (Homo sapiens, UniProt O00141)
Procedure: as §1

[34] = molecular target: SLK (Homo sapiens, UniProt Q9H2G2)
Procedure: as §1

[35] = molecular target: STK4/MST1 (Homo sapiens, UniProt Q13043)
Chain of STK4/MST1 (Q13043 whole entry): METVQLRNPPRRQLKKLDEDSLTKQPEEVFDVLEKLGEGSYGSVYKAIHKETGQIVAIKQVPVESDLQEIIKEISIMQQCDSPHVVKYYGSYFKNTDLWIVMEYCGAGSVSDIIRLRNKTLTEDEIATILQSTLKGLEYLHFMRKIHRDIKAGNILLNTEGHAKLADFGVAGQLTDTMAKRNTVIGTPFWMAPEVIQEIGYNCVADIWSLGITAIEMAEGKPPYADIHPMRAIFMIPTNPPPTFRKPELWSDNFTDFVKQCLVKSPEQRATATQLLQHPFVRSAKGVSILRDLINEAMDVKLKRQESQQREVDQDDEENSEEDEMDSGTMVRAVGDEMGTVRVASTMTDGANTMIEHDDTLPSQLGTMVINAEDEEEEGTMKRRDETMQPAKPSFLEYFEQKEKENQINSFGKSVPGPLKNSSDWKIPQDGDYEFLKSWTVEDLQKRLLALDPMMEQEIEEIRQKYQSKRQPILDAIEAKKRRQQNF
Procedure: as §1

[36] = molecular target: TEK/TIE2 (Homo sapiens, UniProt Q02763)
Procedure: as §1

[37] = molecular target: TESK2 (Homo sapiens, UniProt Q96S53)
Procedure: as §1

[38] = molecular target: TTK (Homo sapiens, UniProt P33981)
Procedure: as §1

[39] = molecular target: ULK3 (Homo sapiens, UniProt Q6PHR2)
Chain of ULK3 (Q6PHR2 whole entry): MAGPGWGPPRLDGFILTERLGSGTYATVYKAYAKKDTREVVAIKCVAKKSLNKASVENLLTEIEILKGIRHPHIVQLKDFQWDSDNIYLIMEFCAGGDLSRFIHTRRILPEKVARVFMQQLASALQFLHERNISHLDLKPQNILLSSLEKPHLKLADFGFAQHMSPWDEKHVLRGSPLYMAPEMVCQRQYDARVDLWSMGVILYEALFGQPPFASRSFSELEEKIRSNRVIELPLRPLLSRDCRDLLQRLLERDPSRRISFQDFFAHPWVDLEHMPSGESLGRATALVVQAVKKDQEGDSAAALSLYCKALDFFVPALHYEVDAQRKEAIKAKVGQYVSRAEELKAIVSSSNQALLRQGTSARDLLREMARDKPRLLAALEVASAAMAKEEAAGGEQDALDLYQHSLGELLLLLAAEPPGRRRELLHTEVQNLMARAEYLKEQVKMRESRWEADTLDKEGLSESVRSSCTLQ
Procedure: as §1

Chain of AXL (P30530 whole entry): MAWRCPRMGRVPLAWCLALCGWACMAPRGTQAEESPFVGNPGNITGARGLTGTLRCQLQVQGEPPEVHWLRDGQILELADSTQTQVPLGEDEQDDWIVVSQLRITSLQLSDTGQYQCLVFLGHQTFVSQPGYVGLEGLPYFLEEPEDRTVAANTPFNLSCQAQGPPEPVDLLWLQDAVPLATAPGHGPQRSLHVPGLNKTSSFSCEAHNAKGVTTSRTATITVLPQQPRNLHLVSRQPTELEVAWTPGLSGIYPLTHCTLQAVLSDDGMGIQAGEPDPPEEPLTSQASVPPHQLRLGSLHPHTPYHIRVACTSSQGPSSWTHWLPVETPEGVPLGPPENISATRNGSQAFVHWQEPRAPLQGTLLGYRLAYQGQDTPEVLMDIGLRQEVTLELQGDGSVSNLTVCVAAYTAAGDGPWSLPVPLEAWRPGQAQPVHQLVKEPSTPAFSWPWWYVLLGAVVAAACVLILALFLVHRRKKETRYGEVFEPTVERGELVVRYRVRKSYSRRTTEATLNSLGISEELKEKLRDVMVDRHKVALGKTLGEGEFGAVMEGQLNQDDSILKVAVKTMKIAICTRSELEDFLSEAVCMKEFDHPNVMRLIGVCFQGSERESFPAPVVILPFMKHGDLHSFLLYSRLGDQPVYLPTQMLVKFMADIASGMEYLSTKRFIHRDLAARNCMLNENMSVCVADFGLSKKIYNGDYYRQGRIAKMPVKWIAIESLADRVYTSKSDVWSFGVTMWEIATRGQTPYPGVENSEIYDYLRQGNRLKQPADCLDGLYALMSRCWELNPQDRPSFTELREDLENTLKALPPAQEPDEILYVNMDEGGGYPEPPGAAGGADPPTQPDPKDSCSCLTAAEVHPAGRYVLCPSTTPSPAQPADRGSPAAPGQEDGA

C=CC(=O)N1CCC[C@@H](n2nc(-c3ccc(Oc4ccccc4)cc3)c3c(N)ncnc32)C1 [Ibrutinib]
1 µM GBD00276 (ibrutinib), % inhibition [1]: 3.723% | 1 µM GBD00276 (ibrutinib), % inhibition [2]: -6.462% | 1 µM GBD00276 (ibrutinib), % inhibition [3]: 26.62% | 1 µM GBD00276 (ibrutinib), % inhibition [4]: -26.28% | 1 µM GBD00276 (ibrutinib), % inhibition [5]: 2.188% | 1 µM GBD00276 (ibrutinib), % inhibition [6]: 2.203% | 1 µM GBD00276 (ibrutinib), % inhibition [7]: 3.427% | 1 µM GBD00276 (ibrutinib), % inhibition [8]: 20.22% | 1 µM GBD00276 (ibrutinib), % inhibition [9]: 6.524% | 1 µM GBD00276 (ibrutinib), % inhibition [10]: 20.23% | 1 µM GBD00276 (ibrutinib), % inhibition [11]: -10.93% | 1 µM GBD00276 (ibrutinib), % inhibition [12]: 3.287% | 1 µM GBD00276 (ibrutinib), % inhibition [13]: 40.58% | 1 µM GBD00276 (ibrutinib), % inhibition [14]: -9.45% | 1 µM GBD00276 (ibrutinib), % inhibition [15]: -13.52% | 1 µM GBD00276 (ibrutinib), % inhibition [16]: -1.576% | 1 µM GBD00276 (ibrutinib), % inhibition [17]: 9.762% | 1 µM GBD00276 (ibrutinib), % inhibition [18]: 3.643% | 1 µM GBD00276 (ibrutinib), % inhibition [19]: 6.189% | 1 µM GBD00276 (ibrutinib), % inhibition [20]: 2.509% | 1 µM GBD00276 (ibrutinib), % inhibition [21]: -16.42% | 1 µM GBD00276 (ibrutinib), % inhibition [22]: -25.42% | 1 µM GBD00276 (ibrutinib), % inhibition [23]: -12.39% | 1 µM GBD00276 (ibrutinib), % inhibition [24]: 14.87% | 1 µM GBD00276 (ibrutinib), % inhibition [25]: -18.67% | 1 µM GBD00276 (ibrutinib), % inhibition [26]: 1.376% | 1 µM GBD00276 (ibrutinib), % inhibition [27]: 26.79% | 1 µM GBD00276 (ibrutinib), % inhibition [28]: -4.777% | 1 µM GBD00276 (ibrutinib), % inhibition [29]: 21.97% | 1 µM GBD00276 (ibrutinib), % inhibition [30]: 98.43% | 1 µM GBD00276 (ibrutinib), % inhibition [31]: -5.427% | 1 µM GBD00276 (ibrutinib), % inhibition [32]: -19.78% | 1 µM GBD00276 (ibrutinib), % inhibition [33]: -3.083% | 1 µM GBD00276 (ibrutinib), % inhibition [34]: -2.298% | 1 µM GBD00276 (ibrutinib), % inhibition [35]: -13.54% | 1 µM GBD00276 (ibrutinib), % inhibition [36]: 2.512% | 1 µM GBD00276 (ibrutinib), % inhibition [37]: 8.621% | 1 µM GBD00276 (ibrutinib), % inhibition [38]: 9.751% | 1 µM GBD00276 (ibrutinib), % inhibition [39]: 2.341%

Source: publication PMC10337138 (Acta Neuropathologica Communications, 2023)
